Numbers after ± are expanded uncertainties.
Key:
[1] = for speed of sound / mass density: 100 kPa, Liquid; for speed of sound: Sing-around technique in a fixed-path interferometer; for mass density: Vibrating tube method; for surface tension liquid-gas: Capillary rise
[2] = xn = mol fraction of the nth substance listed; details: x1 = 1; for surface tension liquid-gas: Capillary rise; for speed of sound: Sing-around technique in a fixed-path interferometer

CCCC[N+]1(C)CCCC1.N#CN=C=[N-] [1-butyl-1-methylpyrrolidinium dicyanamide]
[1]
Details	mass density [kg/m3]	speed of sound [m/s]
288.15 K	1019.11 ± 0.88	1834.4 ± 2.2
298.15 K	1013.48 ± 0.86	1809.6 ± 2.2
308.15 K	1007.82 ± 0.85	1785.2 ± 2.2
318.15 K	1002.33 ± 0.84	1761 ± 2.2
333.15 K	994.14 ± 0.83	1724.7 ± 2.2

O [water]
[1]
Details	speed of sound [m/s]	surface tension liquid-gas [mN/m]
297.7 K	–	71.9 ± 1.2
304.8 K	–	70.6 ± 1.2
313.2 K	–	69.5 ± 1.2
318.15 K	1536.7 ± 0.9	–
324.1 K	–	67.6 ± 1.2
333.15 K	1551.3 ± 0.9	–

O [water] + CCCC[N+]1(C)CCCC1.N#CN=C=[N-]
[2]
Details	surface tension liquid-gas [mN/m]
297.7 K	71.9 ± 1.2
304.8 K	70.6 ± 1.2
313.2 K	69.5 ± 1.2
324.1 K	67.6 ± 1.2

[2], 100 kPa, Liquid
Details	speed of sound [m/s]
318.15 K	1536.7 ± 0.9
333.15 K	1551.3 ± 0.9

Details	mass density [kg/m3]
[2], 333.15 K, 100 kPa, Liquid, Vibrating tube method	983.19 ± 4
